# Test results taken from ChEMBL document CHEMBL4376892, “Identification of Parthenolide Dimers as Activators of Pyruvate Kinase M2 in Xenografts of Glioblastoma Multiforme in Vivo” (J Med Chem, 2020).
# Active and inactive are the calls of the source. No cut-off for these calls is given here.
# Key:
# U-87 MG [1] = assay: Antiproliferative activity against human U87 cells assessed as reduction in cell viability after 72 hrs by MTT assay; assay type: functional, cell-based, U-87MG ATCC
# SF-126 = assay: Antiproliferative activity against human SF126 cells assessed as reduction in cell viability after 72 hrs by MTT assay; assay type: functional, cell-based; settings: SF-126, 72 h
# U-251 = assay: Antiproliferative activity against human U251 cells assessed as reduction in cell viability after 72 hrs by MTT assay; assay type: functional, cell-based; settings: U-251, 72 h
# HeLa = assay: Antiproliferative activity against human HeLa cells assessed as reduction in cell viability after 72 hrs by MTT assay; assay type: functional, cell-based
# HepG2 = assay: Antiproliferative activity against human HepG2 cells assessed as reduction in cell viability after 72 hrs by MTT assay; assay type: functional, cell-based; settings: HepG2, 72 h
# SUM-159-PT = assay: Antiproliferative activity against human SUM159 cells assessed as reduction in cell viability after 72 hrs by MTT assay; assay type: functional, cell-based
# A549 = assay: Antiproliferative activity against human A549 cells assessed as reduction in cell viability after 72 hrs by MTT assay; assay type: functional, cell-based; settings: A549, 72 h
# U-118-MG [2] = assay: Inhibition of colony formation in human U118MG cells after 7 days; assay type: functional, cell-based
# U-118-MG [3] = assay: Induction of apoptosis in human U118MG cells after 48 hrs by Annexin-V-FITC/PI-staining based flow cytometric analysis; assay type: functional, cell-based
# U-118-MG [4] = assay: Antimetastatic activity against human U118MG cells assessed as reduction in cell migration at 2 uM after 24 hrs by crystal violet staining based transwell assay; assay type: functional
# Pyruvate kinase PKM [5] = target: T1, Pyruvate kinase PKM (Homo sapiens, UniProt P14618); assay: Activation of PKM2 in human U87 cells assessed as increase in PKM2 tetramer formation at 0.5 to 1 uM after 48 hrs by chemical cross-linking based Western blot analysis; assay type: cell-based; settings: U-87MG ATCC
# Pyruvate kinase PKM [6] = target: T1, Pyruvate kinase PKM; assay: Activation of PKM2 in human U118MG cells assessed as increase in PKM2 tetramer formation at 0.5 to 1 uM after 48 hrs by chemical cross-linking based Western blot analysis; assay type: cell-based
# U-87MG ATCC [7] = assay: Effect on P65 protein expression in human U87 cells at 0.2 to 0.5 uM after 48 hrs by Western blot analysis; assay type: functional, cell-based
# U-118-MG [8] = assay: Effect on P65 protein expression in human U118MG cells at 0.2 to 0.5 uM after 48 hrs by Western blot analysis; assay type: functional, cell-based
# [9] = target: Transcription factor p65 (Homo sapiens) (UniProt Q04206); assay: Effect on NFkappaB p65 nuclear translocation in human U118MG cells at 0.2 to 0.5 after 48 hrs by Western blot analysis; assay type: cell-based
# Pyruvate kinase PKM [10] = target: T1, Pyruvate kinase PKM; assay: Activation of PKM2 in human U87 cells assessed as inhibition of STAT3 phosphorylation at 1 to 2 uM after 24 hrs by Western blot analysis; assay type: cell-based; settings: U-87MG ATCC
# Pyruvate kinase PKM [11] = target: T1, Pyruvate kinase PKM; assay: Activation of PKM2 in human U118MG cells assessed as inhibition of STAT3 phosphorylation at 1 to 2 uM after 24 hrs by Western blot analysis; assay type: cell-based
# Pyruvate kinase PKM [12] = target: T1, Pyruvate kinase PKM; assay: Activation of PKM2 in human U118MG cells assessed as reduction in vimentin expression at 1 to 2 uM after 24 hrs by Western blot analysis; assay type: cell-based
# Pyruvate kinase PKM [13] = target: T1, Pyruvate kinase PKM; assay: Activation of PKM2 in human U118MG cells assessed as reduction in bcl-xl expression at 1 to 2 uM after 48 hrs by Western blot analysis; assay type: cell-based
# Pyruvate kinase PKM [14] = target: T1, Pyruvate kinase PKM; assay: Activation of PKM2 in human U87 cells assessed as inhibition of STAT3 protein expression at 5 uM after 48 hrs by Western blot analysis; assay type: cell-based; settings: U-87MG ATCC
# U-118-MG [15] = assay: Induction of PDK4 protein expression in human U118MG cells at 2 uM after 48 hrs by Western blot analysis; assay type: functional, cell-based
# U-87MG ATCC [16] = assay: Induction of PDK4 protein expression in human U87 cells at 5 uM after 48 hrs by Western blot analysis; assay type: functional, cell-based
# U-87 MG [17] = assay: Induction of apoptosis in human U87 cells transfected with lentivirus expressing shNC assessed as viable cells after 48 hrs by Annexin-V-FITC/PI-staining based flow cytometric analysis (reference value: 98.5%); assay type: functional, U-87MG ATCC
# U-87 MG [18] = assay: Induction of apoptosis in human U87 cells transfected with lentivirus expressing shNC assessed as early apoptotic cells after 48 hrs by Annexin-V-FITC/PI-staining based flow cytometric analysis (reference value: 0.588%); assay type: functional, U-87MG ATCC
# U-87 MG [19] = assay: Induction of apoptosis in human U87 cells transfected with lentivirus expressing shNC assessed as necrotic cells after 48 hrs by Annexin-V-FITC/PI-staining based flow cytometric analysis (reference value: 0.319%); assay type: functional, U-87MG ATCC
# U-87 MG [20] = assay: Induction of apoptosis in human U87 cells transfected with lentivirus expressing shPKM2 assessed as early apoptotic cells after 48 hrs by Annexin-V-FITC/PI-staining based flow cytometric analysis (reference value: 0.88%); assay type: functional, U-87MG ATCC
# U-87 MG [21] = assay: Induction of apoptosis in human U87 cells transfected with lentivirus expressing shPKM2 assessed as late apoptotic cells after 48 hrs by Annexin-V-FITC/PI-staining based flow cytometric analysis (reference value: 1.25%); assay type: functional, U-87MG ATCC
# U-87 MG [22] = assay: Induction of apoptosis in human U87 cells transfected with lentivirus expressing shPKM2 assessed as necrotic cells after 48 hrs by Annexin-V-FITC/PI-staining based flow cytometric analysis (reference value: 0.580%); assay type: functional, U-87MG ATCC
# U-118-MG [23] = assay: Induction of apoptosis in human U118MG cells transfected with lentivirus expressing shNC assessed as viable cells after 48 hrs by Annexin-V-FITC/PI-staining based flow cytometric analysis (reference value: 96.7%); assay type: functional
# U-118-MG [24] = assay: Induction of apoptosis in human U118MG cells transfected with lentivirus expressing shNC assessed as necrotic cells after 48 hrs by Annexin-V-FITC/PI-staining based flow cytometric analysis (reference value: 0.418%); assay type: functional
# U-118-MG [25] = assay: Induction of apoptosis in human U118MG cells transfected with lentivirus expressing shPKM2 assessed as viable cells after 48 hrs by Annexin-V-FITC/PI-staining based flow cytometric analysis (reference value: 97.7%); assay type: functional
# U-118-MG [26] = assay: Antimigratory activity against human U118MG cells transfected with lentivirus expressing shPKM2 at 2 uM incubated for 48 hrs by crystal violet staining based transwell assay; assay type: functional, cell-based
# U-118-MG [27] = assay: Induction of apoptosis in human U118MG cells assessed as early apoptotic cells after 48 hrs by Annexin-V-FITC/PI-staining based flow cytometric analysis (reference value: 1.35%); assay type: functional
# U-87 MG [28] = assay: Induction of apoptosis in human U87 cells assessed as viable cells after 48 hrs by Annexin-V-FITC/PI-staining based flow cytometric analysis (reference value: 93.8%); assay type: functional, U-87MG ATCC
# U-87 MG [29] = assay: Induction of apoptosis in human U87 cells assessed as necrotic cells after 48 hrs by Annexin-V-FITC/PI-staining based flow cytometric analysis (reference value: 0.1%); assay type: functional, U-87MG ATCC
# U-87 MG [30] = assay: Antimigratory activity against human U87 cells transfected with lentivirus expressing shNC at 2 uM incubated for 48 hrs by crystal violet staining based transwell assay; assay type: functional, cell-based; settings: U-87MG ATCC
# U-118-MG [31] = assay: Antiinvasive activity against human U118MG cells transfected with lentivirus expressing shNC at 2 uM incubated for 48 hrs by crystal violet staining based transwell assay; assay type: functional, cell-based
# U-87 MG [32] = assay: Antiinvasive activity against human U87 cells transfected with lentivirus expressing shNC at 2 uM incubated for 48 hrs by crystal violet staining based transwell assay; assay type: functional, cell-based; settings: U-87MG ATCC
# T1 sequence (P14618 2-531 limits assumed): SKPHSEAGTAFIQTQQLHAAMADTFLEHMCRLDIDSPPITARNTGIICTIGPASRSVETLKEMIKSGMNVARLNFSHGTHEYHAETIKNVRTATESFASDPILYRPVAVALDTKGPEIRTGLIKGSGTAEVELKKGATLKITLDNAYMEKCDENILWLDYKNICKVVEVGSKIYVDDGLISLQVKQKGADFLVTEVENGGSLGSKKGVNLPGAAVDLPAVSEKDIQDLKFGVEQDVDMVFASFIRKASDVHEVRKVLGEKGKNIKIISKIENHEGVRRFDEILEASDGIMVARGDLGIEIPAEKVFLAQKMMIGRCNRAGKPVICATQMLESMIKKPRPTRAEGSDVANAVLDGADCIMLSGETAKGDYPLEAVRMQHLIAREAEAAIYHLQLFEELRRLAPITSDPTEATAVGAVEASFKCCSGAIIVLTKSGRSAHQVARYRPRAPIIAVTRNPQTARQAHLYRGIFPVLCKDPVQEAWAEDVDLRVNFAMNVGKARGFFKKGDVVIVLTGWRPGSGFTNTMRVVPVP
# Sequence of Transcription factor p65 (Homo sapiens) (Q04206 whole entry): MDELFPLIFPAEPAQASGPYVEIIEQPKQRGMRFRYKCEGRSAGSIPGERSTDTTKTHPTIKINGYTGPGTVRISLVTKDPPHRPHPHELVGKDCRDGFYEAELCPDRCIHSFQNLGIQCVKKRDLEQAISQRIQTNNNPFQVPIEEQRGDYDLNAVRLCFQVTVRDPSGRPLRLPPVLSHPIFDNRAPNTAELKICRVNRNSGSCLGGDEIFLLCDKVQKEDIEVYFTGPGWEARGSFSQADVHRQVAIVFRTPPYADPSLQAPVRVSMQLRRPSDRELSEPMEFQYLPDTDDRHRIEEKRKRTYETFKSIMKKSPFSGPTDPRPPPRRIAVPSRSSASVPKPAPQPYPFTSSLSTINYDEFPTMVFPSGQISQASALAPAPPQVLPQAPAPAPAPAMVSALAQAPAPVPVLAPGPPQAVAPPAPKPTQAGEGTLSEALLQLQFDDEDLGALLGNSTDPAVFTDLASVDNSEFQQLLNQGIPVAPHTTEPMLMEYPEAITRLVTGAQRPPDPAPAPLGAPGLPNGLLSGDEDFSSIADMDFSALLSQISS
smiles,measurement,setting,value
C=C1C(=O)O[C@H]2[C@H]1CC/C(C(=O)OCCOCCOC(=O)/C1=C/CC[C@@]3(C)O[C@H]3[C@H]3OC(=O)C(=C)[C@@H]3CC1)=C\CC[C@@]1(C)O[C@@H]21,IC50,U-87 MG [1],3.03 µM
same,IC50,SF-126,7.49 µM
same,IC50,U-251,7.14 µM
same,IC50,HeLa,5.05 µM
same,IC50,HepG2,10.2 µM
same,IC50,SUM-159-PT,2.82 µM
same,IC50,A549,11.9 µM
same,inhibition,U-118-MG [2],Dose-dependent effect
same,Activity,U-118-MG [3],Dose-dependent effect
same,Activity,U-118-MG [4],Active
same,Activity,Pyruvate kinase PKM [5],Active
same,Activity,Pyruvate kinase PKM [6],Active
same,Activity,U-87MG ATCC [7],inactive
same,Activity,U-118-MG [8],inactive
same,Activity,[9],inactive
same,Activity,Pyruvate kinase PKM [10],Active
same,Activity,Pyruvate kinase PKM [11],Active
same,Activity,Pyruvate kinase PKM [12],Active
same,Activity,Pyruvate kinase PKM [13],Active
same,Activity,Pyruvate kinase PKM [14],Active
same,Activity,U-118-MG [15],Active
same,Activity,U-87MG ATCC [16],Active
same,Activity,U-87 MG [17],85.1%
same,Activity,U-87 MG [18],9.99%
same,Activity,U-87 MG [19],1.24%
same,Activity,U-87 MG [20],3.74%
same,Activity,U-87 MG [21],2.76%
same,Activity,U-87 MG [22],0.539%
same,Activity,U-118-MG [23],34.7%
same,Activity,U-118-MG [24],1.85%
same,Activity,U-118-MG [25],92.8%
same,Activity,U-118-MG [26],inactive
same,Activity,U-118-MG [27],39.4%
same,Activity,U-87 MG [28],72.5%
same,Activity,U-87 MG [29],0.256%
same,Activity,U-87 MG [30],Active
same,Activity,U-118-MG [31],Active
same,Activity,U-87 MG [32],Active
